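Five concentrations, 48 hours, 96-well plates. TGI denotes the concentration required for complete inhibition of growth.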
Each molecule was assayed on NCI-H460 lung (assay: NCI tumour cell line growth inhibition, 48 h).
`CCCOC(=O)NC(C)C(=O)NC(CCC(=O)NC(CCCC(N)C(=O)O)C(=O)NC(C)C(=O)O)C(=O)O` (stereo not given) was tested, and the TGI was over 100 µM.
With `COC(=O)C1(Cc2ccc3c(c2)CCC3)Cc2ccccc2C1=O` (stereo not given) the TGI was 93.6 µM.

The molecules below were run on OVCAR-8 ovarian (assay: NCI tumour cell line growth inhibition, 48 h).
`COC(=O)c1cc(C)ccc1CC(Cc1ccc(C)cc1)C(=O)OC` (stereo not given) showed a TGI of over 100 µM.
Molecule `Nc1nc(N)nc(CCCc2nc(N)nc(N)n2)n1` has a TGI of over 100 µM.
In the case of `COC(=O)C1(Cc2ccc3c(c2)CCC3)Cc2cc3c(cc2C1)CCC3`, the TGI is reported as over 100 µM.
Molecule `Cc1cc(/N=C/c2ccc(C#N)cc2)n(-c2ccccc2)n1` has a TGI of over 100 µM.
`COc1cc(OCc2ccc3nc(OC)c(OC)nc3c2)cc(OC)c1OC` gave a TGI of over 10 µM.
With `CCCOC(=O)NC(C)C(=O)NC(CCC(=O)NC(CCCC(N)C(=O)O)C(=O)NC(C)C(=O)O)C(=O)O` (stereo not given) the TGI was 33.9 µM.
For `COC(=O)C1(Cc2ccc3c(c2)CCC3)Cc2ccccc2C1=O` (stereo not given), the TGI was over 100 µM.

These molecules were tested on PC-3 prostate (assay: NCI tumour cell line growth inhibition, 48 h).
With `COC(=O)c1cc(C)ccc1CC(Cc1ccc(C)cc1)C(=O)OC` (stereo not given) the TGI was over 100 µM.
`Nc1nc(N)nc(CCCc2nc(N)nc(N)n2)n1` was tested, and the TGI was over 100 µM.
In the case of `COC(=O)C1(Cc2ccc3c(c2)CCC3)Cc2cc3c(cc2C1)CCC3`, the TGI is reported as over 100 µM.
Molecule `Cc1cc(/N=C/c2ccc(C#N)cc2)n(-c2ccccc2)n1` has a TGI of over 100 µM.
With `COc1cc(OCc2ccc3nc(OC)c(OC)nc3c2)cc(OC)c1OC` the TGI was over 4.95 µM.
With `CCCOC(=O)NC(C)C(=O)NC(CCC(=O)NC(CCCC(N)C(=O)O)C(=O)NC(C)C(=O)O)C(=O)O` (stereo not given) the TGI was 53.7 µM.
Molecule `COC(=O)C1(Cc2ccc3c(c2)CCC3)Cc2ccccc2C1=O` (stereo not given) has a TGI of over 100 µM.

What follows are molecules tested on SK-MEL-5 melanoma (assay: NCI tumour cell line growth inhibition, 48 h).
For `COC(=O)c1cc(C)ccc1CC(Cc1ccc(C)cc1)C(=O)OC` (stereo not given), the TGI was 12.6 µM.
`Nc1nc(N)nc(CCCc2nc(N)nc(N)n2)n1` was tested, and the TGI was over 100 µM.
For `COC(=O)C1(Cc2ccc3c(c2)CCC3)Cc2cc3c(cc2C1)CCC3`, the TGI was over 100 µM.
For `Cc1cc(/N=C/c2ccc(C#N)cc2)n(-c2ccccc2)n1`, the TGI was over 100 µM.
`COc1cc(OCc2ccc3nc(OC)c(OC)nc3c2)cc(OC)c1OC` was tested, and the TGI was over 10 µM.
Work on `CCCOC(=O)NC(C)C(=O)NC(CCC(=O)NC(CCCC(N)C(=O)O)C(=O)NC(C)C(=O)O)C(=O)O` (stereo not given) yielded a TGI of 30.5 µM.
Molecule `COC(=O)C1(Cc2ccc3c(c2)CCC3)Cc2ccccc2C1=O` (stereo not given) has a TGI of 18.1 µM.

The molecules below were run on T-47D breast (assay: NCI tumour cell line growth inhibition, 48 h).
Molecule `COC(=O)c1cc(C)ccc1CC(Cc1ccc(C)cc1)C(=O)OC` (stereo not given) has a TGI of over 100 µM.
Molecule `Nc1nc(N)nc(CCCc2nc(N)nc(N)n2)n1` has a TGI of over 100 µM.
Molecule `COC(=O)C1(Cc2ccc3c(c2)CCC3)Cc2cc3c(cc2C1)CCC3` has a TGI of 60.7 µM.
For `Cc1cc(/N=C/c2ccc(C#N)cc2)n(-c2ccccc2)n1`, the TGI was over 100 µM.
In the case of `COc1cc(OCc2ccc3nc(OC)c(OC)nc3c2)cc(OC)c1OC`, the TGI is reported as over 10 µM.
With `CCCOC(=O)NC(C)C(=O)NC(CCC(=O)NC(CCCC(N)C(=O)O)C(=O)NC(C)C(=O)O)C(=O)O` (stereo not given) the TGI was 41.7 µM.
In the case of `COC(=O)C1(Cc2ccc3c(c2)CCC3)Cc2ccccc2C1=O` (stereo not given), the TGI is reported as over 100 µM.

What follows are molecules tested on M14 melanoma (assay: NCI tumour cell line growth inhibition, 48 h).
With `COC(=O)c1cc(C)ccc1CC(Cc1ccc(C)cc1)C(=O)OC` (stereo not given) the TGI was over 100 µM.
Work on `Nc1nc(N)nc(CCCc2nc(N)nc(N)n2)n1` yielded a TGI of over 100 µM.
Molecule `COC(=O)C1(Cc2ccc3c(c2)CCC3)Cc2cc3c(cc2C1)CCC3` has a TGI of over 100 µM.
In the case of `Cc1cc(/N=C/c2ccc(C#N)cc2)n(-c2ccccc2)n1`, the TGI is reported as over 100 µM.
`COc1cc(OCc2ccc3nc(OC)c(OC)nc3c2)cc(OC)c1OC` gave a TGI of over 10 µM.
For `CCCOC(=O)NC(C)C(=O)NC(CCC(=O)NC(CCCC(N)C(=O)O)C(=O)NC(C)C(=O)O)C(=O)O` (stereo not given), the TGI was 40.6 µM.
Molecule `COC(=O)C1(Cc2ccc3c(c2)CCC3)Cc2ccccc2C1=O` (stereo not given) has a TGI of 32.4 µM.

Each molecule was assayed on SNB-75 CNS (assay: NCI tumour cell line growth inhibition, 48 h).
Molecule `COC(=O)c1cc(C)ccc1CC(Cc1ccc(C)cc1)C(=O)OC` (stereo not given) has a TGI of over 90.7 µM.
`Nc1nc(N)nc(CCCc2nc(N)nc(N)n2)n1` was tested, and the TGI was over 100 µM.
Work on `COC(=O)C1(Cc2ccc3c(c2)CCC3)Cc2cc3c(cc2C1)CCC3` yielded a TGI of over 100 µM.
In the case of `Cc1cc(/N=C/c2ccc(C#N)cc2)n(-c2ccccc2)n1`, the TGI is reported as over 100 µM.
`COc1cc(OCc2ccc3nc(OC)c(OC)nc3c2)cc(OC)c1OC` showed a TGI of over 10 µM.
Work on `COC(=O)C1(Cc2ccc3c(c2)CCC3)Cc2ccccc2C1=O` (stereo not given) yielded a TGI of over 100 µM.

The molecules below were run on A549 NSCLC (assay: NCI tumour cell line growth inhibition, 48 h).
Work on `COC(=O)c1cc(C)ccc1CC(Cc1ccc(C)cc1)C(=O)OC` (stereo not given) yielded a TGI of over 100 µM.
For `Nc1nc(N)nc(CCCc2nc(N)nc(N)n2)n1`, the TGI was over 100 µM.
For `COC(=O)C1(Cc2ccc3c(c2)CCC3)Cc2cc3c(cc2C1)CCC3`, the TGI was over 100 µM.
Work on `Cc1cc(/N=C/c2ccc(C#N)cc2)n(-c2ccccc2)n1` yielded a TGI of over 100 µM.
`COc1cc(OCc2ccc3nc(OC)c(OC)nc3c2)cc(OC)c1OC` gave a TGI of over 10 µM.
With `CCCOC(=O)NC(C)C(=O)NC(CCC(=O)NC(CCCC(N)C(=O)O)C(=O)NC(C)C(=O)O)C(=O)O` (stereo not given) the TGI was over 100 µM.
With `COC(=O)C1(Cc2ccc3c(c2)CCC3)Cc2ccccc2C1=O` (stereo not given) the TGI was over 100 µM.

Reference: PubChem BioAssay (NCI)
